How the values were obtained:
Water solubility = type: physicochemical; conditions: for water solubility (product containing bound NH4+ and ammonium hydrocarbonate contaminations): before repeated ion exchange chromatography, m.p. 159-161 °C
Bacillus subtilis = assay: Agar diffusion test, minimum inhibitory concentration (MIC) on Bacillus subtilis; type: cell-based, Bacillus subtilis ATCC 6633; conditions: for MIC: Table II, agar diffusion test on Bacillus subtilis; for biological activity (on Bacillus subtilis): preparation examples
Experimental: Thin layer chromatography was performed on a Kieselgel 60 DC Alufolien F254 plate utilizing the upper phase of a 38:2:10:50 v/v mixture of butanol, ethanol, acetic acid and water as solvent and a mixture of vanillin and sulfuric acid at 105° C. as detecting agent. Biological evaluation was performed by agar diffusion test on Bacillus subtilis.
Agar diffusion technique was applied for the biological evaluation of primycin. As test organism Bacillus subtilis ATCC 6633 was applied.
Bacillus subtilis ATCC 6633 was cultivated on a Schaeffer medium (Nutrient Broth No. 2/oxoid) with the following composition:
The solution was heated in a pressurized vessel for 30 minutes at a pressure of 1.5 atmospheres, thereafter the pE was adjusted to 7.0-7.2 with 5-6 drops of 10N sodium hydroxide solution, 90 ml portions of the solution were poured into cultivating dishes, and the portions were supplemented with 10 ml, each, of the following solutions:
a) 236 mg (10^-3 mole) of Ca(NO3)2. 4H2 O dissolved in 100 ml of distilled water, and
b) […] (10^-5 mole) of MnCl2.4H2 O dissolved in 100 ml of distilled water.
The titrating nutrient medium was prepared as follows:
5 g of meat extract (Beef Extract Difco), 0.5 g of peptone (Bacto Peptone Difco), 1 g of Na2 HPO4 and 0.1 g of KH2 PO4 were dissolved in 100 ml of distilled water, the solution was boiled for 2 hours, and then the pH was adjusted to 8. The warm solution was filtered, allowed to cool, the filtrate was diluted with 900 ml of distilled water, and 20 g of agar (Bacto Agar Difco), dissolved in a Koch pot, were added to 1 liter of the solution. The pH of the warm solution was checked. 100 ml portions of the resulting solution were filled into storage flasks and then heat treated for 20 minutes in a pressurized vessel under a pressure of 1.5 atmospheres. […]
Solutions containing 20-50 /ug/ml of active agent were prepared from the substances to be examined [starting water insoluble primycin; water soluble primycin; a mixture of the compounds of formulae (A1) and (A3); a compound of formula (A1); a compound of formula (A3)] in water or in a 1:1:2 v/v mixture of butanol, ethanol and water, and the resulting solutions were diluted with buffered distilled water (0.15 molar phosphate buffer, pH=7.6) to concentrations of 0.05-0.1, 0.5-1.0 and 2.0 /ug/ml. […] Thereafter the diameters of the diffusive extinction zones were measured in mm, the obtained values were plotted on a semi-logarithmic scale against the concentrations of the standard serial dilutions, and the activity values were determined by extrapolation.

[1] = Gelling of aqueous solutions (concentration-, time- and temperature-dependent); type: physicochemical; conditions: 5-10 mg/ml aqueous solution of the single component
Experimental: Water soluble primycin has a further very interesting characteristic. It has been observed that its aqueous solution spontaneously gellifies, the gelling time being dependent on the primycin content of the solution. As it appears from the curves of FIG. 1, the complete gelling of a 5-10 mg/ml aqueous primycin solution requires about 1-2 days, that of a 20-40 mg/ml primycin solution requires about 6-12 hours, whereas an aqueous primycin solution comprising more than 50 mg/ml of primycin completely gellifies even within 1-2 hours. The concentration-, time- and temperature-dependent gelling (polymerization) can be attributed presumably to the changes in orientation of the --OH groups in the molecule.
The gelling properties of the individual components of formulae (A1) and (A3) and those of the two-component mixture have also been examined. […] It can be assumed that this delay in gelling is connected with a change in conformation or with the orientation of the hydroxy groups.

Row | Compound | water solubility (product containing bound NH4+ and ammonium hydrocarbonate contaminations) (Water solubility) | water solubility (product containing bound NH4+ and ammonium hydrocarbonate contaminations) (Water solubility; listed as component of formula (A3)) | Water solubility (Water solubility; water, listed as component of formula (A3)) | MIC (Bacillus subtilis) | biological activity (on Bacillus subtilis) (Bacillus subtilis) | storage of aqueous solution without any observable change [1] | water solubility (in words) (Water solubility) | biological activity (on Bacillus subtilis) (Bacillus subtilis; listed as component of formula (A1))
1 | CCCCC1C(=O)OC(C(C)C(O)CCCNC(=N)N)C(C)C=C(C)CCCCC(O)CC(O)CC(O)CC(O)CC(O)C(OC2OC(CO)C(O)C2O)C=C(C)C(O)CCCC(O)CCCC(O)CCC(C)C1O (stereo not shown) [Compound of formula (A3)] | about 5 mg/ml | 2000 to 6000 µg/mL | about 50 mg/ml | 0.5 to 1.0 µg/mL | 0.5-1 /ug/ml | can be stored for days (maximum for one week) without any observable change | – | –
2 | CCCCC1C(=O)OC(C(C)C(O)CCCNC(=N)N)C(C)C=C(C)CCCCC(O)CC(O)CC(O)CC(O)CC(O)C(OC2OC(CO)C(O)C2O)C=C(C)C(O)CCCC(O)CCCC(O)CCC(C)C1O (stereo not shown) [Compound of formula (A1)] | – | – | – | 0.03 to 0.06 µg/mL | – | can be stored for days (maximum for one week) without any observable change | well soluble in water | 0.03-0.06 /ug/ml

Reference: patent US5441940A, “Process for the preparation of water soluble primycin and its components and pharmaceutical compositions containing them” (Chinoin Gyogyszer es Vegyeszeti Termekek Gyara Rt., priority 1988, dated 1995)
